These results are taken from patent US12624018B1, “Inhibitors of RIPK2 and medical uses thereof” (Odyssey Therapeutics, Inc., priority 2022, dated 2026).

Each structure is given as a SMILES string. Like-named read-outs stand apart in the source and are kept apart here. A value given as a limit tells only on which side of the number the result lay.

The target of one assay is T1, RIPK2 enzyme (Homo sapiens, UniProt O43353).
T1 construct: purchased Carna 09-128
Put plainly: RIPK2 inhibition (ADP-Glo Kinase Assay). The class given is biochemical. The note with it: RIPK2 5 nM, ATP 150 μM, MBP substrate, read-out: RIPK2 IC50. An outline of the steps:
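Swine MBP substrate; compound and 5 nM RIPK2 first mixed for 30 min at room temperature; buffer pH 7.5 HEPES 50 mM with 10 mM MgCl2, 2 mM DTT, 1 mM EGTA, Brij-35, BSA.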
Background: ADP-Glo first removes unused ATP, then detects ADP through luciferase.

The next assay deals with human NOD2 signaling. Put plainly: Inhibition of human NOD2 signaling in HEK-Blue-hNOD2 cells (L18-MDP stimulated, SEAP reporter). The class given is cell-based. The note with it: Homo sapiens. An outline of the steps: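 Read-out is SEAP absorbance at 620 nm after 3 h QUANTI-Blue development of supernatant from HEK293 cells carrying NOD2 and a SEAP reporter (12500/well). Cells got compound (10 points, 3-fold dilutions) and 0.5 ng/mL L18-MDP for 24 h at 37 °C; percent inhibition vs stimulated/unstimulated controls, 4-parameter IC50.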

Assay [1] concerns the target T2, RIPK2 and XIAP protein-protein interaction (Homo sapiens, UniProt O43353).
T2 construct: the N-terminus of full-length RIPK2 was appended with the HaloTag fusion protein; expressed in transfected cells; host or cells: HEK293T
Put plainly: Inhibition of the interaction of RIPK2 with XIAP (NanoBRET in HEK293T cells). The assay is classed as cell-based. The settings on record: NanoBRET. From the text: An assay measuring the RIPK2 and XIAP protein-protein interaction was generated using the NanoBRET protein:protein interaction system (Promega) which measures the energy transfer from a bioluminescent protein donor (NanoLuc fusion protein) to a fluorescent protein acceptor (Halotag fusion protein). In this assay, the C-terminus of full-length XIAP was appended with the NanoLuc fusion protein and the N-terminus of full-length RIPK2 was appended with the HaloTag fusion protein. Assay medium consisted of Opti-MEM I reduced serum medium with no phenol red plus 4% heat inactivated FBS. Transfection reagents were combined in a microfuge tube as follows: 400 μL of assay medium, 8 μL of vector with N-terminus of RIPK2 HaloTag fusion protein (vector concentration at 1 μg/μL), 0.8 μL of vector with C-terminus of XIAP NanoLuc fusion protein (vector concentration at 1 μg/μL), and 24 μL of FuGENE HD transfection reagent (Promega, catalogue number E2312). […] Test compounds were prepared into a 10 mM DMSO solution and were serially diluted into 10 points using a 3-fold dilution in a 384 well plate using a TECAN EV0200.
Method: HEK293T cells were transfected with the RIPK2 HaloTag fusion and XIAP NanoLuc fusion vectors in suspension. […] Transfection reagents were pre-mixed and incubated at room temperature for 30 minutes. Then the total transfection reagent mixture was added dropwise to the 16 mL cell suspension and mixed gently. 40 μL of the cells and transfection reagent suspension was plated into a white 384 well plate and incubated at 37° C. in a CO2 incubator for 24 hours. […] Lastly, a 3× solution of NanoBRET Nano-Glo substrate in Opti-MEM I reduced serum media (no phenol red; 20 μL total volume) was added to each well and incubated for 2-3 minutes at room temperature. The plate was then measured using 460 nm filter (donor emission) and 618 nm filter (acceptor emission) in an EnVision multimode plate reader (PerkinElmer). The NanoBRET ratio values were determined by dividing the acceptor emission value by the donor emission value for each sample.
A general note: In BRET a luciferase serves as donor, and the signal depends on an acceptor being close.

[2] abbreviates: HEK-Blue hNOD2, HEK-Blue-hNOD2 cells, NOD2 ligand stimulation, SEAP reporter, read-out: hNOD2 IC50.

T1 sequence (O43353 1-299 limits assumed): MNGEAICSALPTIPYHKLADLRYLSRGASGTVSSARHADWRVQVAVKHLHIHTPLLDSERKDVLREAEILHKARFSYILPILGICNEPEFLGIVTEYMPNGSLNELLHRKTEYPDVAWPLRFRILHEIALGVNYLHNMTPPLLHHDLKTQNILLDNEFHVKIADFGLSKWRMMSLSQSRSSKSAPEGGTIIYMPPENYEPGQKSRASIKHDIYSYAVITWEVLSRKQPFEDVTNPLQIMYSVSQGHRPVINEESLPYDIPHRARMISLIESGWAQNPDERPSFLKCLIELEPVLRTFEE
T2 sequence (O43353 whole entry, the tested form may be a part): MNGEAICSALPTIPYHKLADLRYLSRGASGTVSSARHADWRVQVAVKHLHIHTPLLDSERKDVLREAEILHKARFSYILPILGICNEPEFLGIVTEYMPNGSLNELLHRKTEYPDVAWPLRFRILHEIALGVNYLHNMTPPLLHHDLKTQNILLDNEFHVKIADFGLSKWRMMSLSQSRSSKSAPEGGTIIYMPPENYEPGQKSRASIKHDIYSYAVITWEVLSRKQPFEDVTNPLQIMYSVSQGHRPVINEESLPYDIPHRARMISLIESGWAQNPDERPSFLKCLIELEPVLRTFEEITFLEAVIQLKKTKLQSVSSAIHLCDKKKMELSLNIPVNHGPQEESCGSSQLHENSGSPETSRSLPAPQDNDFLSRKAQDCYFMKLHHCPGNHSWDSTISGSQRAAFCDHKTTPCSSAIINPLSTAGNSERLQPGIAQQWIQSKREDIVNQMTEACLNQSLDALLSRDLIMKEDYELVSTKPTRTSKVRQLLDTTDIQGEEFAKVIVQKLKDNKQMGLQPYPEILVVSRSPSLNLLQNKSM

A word on the IC50: it is the concentration needed to halve the response being measured. Turning to `[2H]C([2H])([2H])NC(=O)c1cc2c(Oc3c(C)cc(CC(=O)Nc4cnn(C(C)(C)C)c4)cc3F)ccnc2cc1F` [Compound 600, 4-(4-(2-((1-(tert-butyl)-1H-pyrazol-4-yl)amino)-2-oxoethyl)-2-fluoro-6-methylphenoxy)-7-fluoro-N-(methyl-d3)quinoline-6-carboxamide], the IC50 on RIPK2 enzyme was less than 2.5 nM; in the assay with human NOD2 signaling (setting [2]), 1.4 nM.

In the case of `[2H]C([2H])([2H])C(n1cc(NC(=O)Cc2cc(C)c(Oc3ccnc4cc(F)c(C(=O)NC)cc34)c(F)c2)cn1)(C([2H])([2H])[2H])C([2H])([2H])[2H]` [Compound 601, 7-fluoro-4-(2-fluoro-6-methyl-4-(2-((1-(2-(methyl-d3)propan-2-yl-1,1,1,3,3,3-d6)-1H-pyrazol-4-yl)amino)-2-oxoethyl)phenoxy)-N-methylquinoline-6-carboxamide], the half-maximal inhibitory concentration (IC50) on RIPK2 enzyme was less than 2.5 nM; in the assay with human NOD2 signaling (setting [2]) it was 1.4 nM.

In the case of `Cc1cc(CC(=O)Nc2cnn(C(C)(C)C)c2)cc(F)c1Oc1ccnc2cc(Cl)c(C(N)=O)cc12` [Compound 602, 4-(4-(2-((1-(tert-butyl)-1H-pyrazol-4-yl)amino)-2-oxoethyl)-2-fluoro-6-methylphenoxy)-7-chloroquinoline-6-carboxamide], the IC50 was less than 2.5 nM at RIPK2 enzyme and 8 nM with human NOD2 signaling (setting [2]).

Take `Cc1cc(CC(=O)Nc2cnn(C(C)(C)C)c2)ccc1Oc1ccnc2ccc(C3(C(N)=O)CC3)cc12` [Compound 603, 1-(4-(4-(2-((1-(tert-butyl)-1H-pyrazol-4-yl)amino)-2-oxoethyl)-2-methylphenoxy)quinolin-6-yl)cyclopropane-1-carboxamide]: the values for the IC50 on RIPK2 enzyme and in the assay on human NOD2 signaling (setting [2]) were less than 2.5 nM and 2.5 nM, respectively.

For `Cc1cc(CC(=O)Nc2cnn(C(C)(C)C)c2)ccc1Oc1ccnc2ccc(C3(C(N)=O)CCC3)cc12` [Compound 604, 1-(4-(4-(2-((1-(tert-butyl)-1H-pyrazol-4-yl)amino)-2-oxoethyl)-2-methylphenoxy)quinolin-6-yl)cyclobutane-1-carboxamide], the IC50 on RIPK2 enzyme is less than 2.5 nM; in the assay on human NOD2 signaling (setting [2]) it was 12.4 nM.

For the compound `Cc1cc(CC(=O)Nc2cnn(C(C)(C)C)c2)ccc1Oc1ccnc2ccc(C3(S(C)(=O)=O)CC3)cc12` [Compound 605, N-(1-(tert-butyl)-1H-pyrazol-4-yl)-2-(3-methyl-4-((6-(1-(methylsulfonyl)cyclopropyl)quinolin-4-yl)oxy)phenyl)acetamide], the IC50 was less than 2.5 nM on RIPK2 enzyme and 15.6 nM in the assay with human NOD2 signaling (setting [2]).

Turning to `Cc1c(Oc2ccnc3ccc(C4(C(N)=O)CCC4)cc23)cc(F)c(CC(=O)Nc2cnn(C(C)(C)C)c2)c1F` [Compound 606, 1-(4-(4-(2-((1-(tert-butyl)-1H-pyrazol-4-yl)amino)-2-oxoethyl)-3,5-difluoro-2-methylphenoxy)quinolin-6-yl)cyclobutane-1-carboxamide], the IC50 at RIPK2 enzyme was determined as 3.8 nM; in the assay with human NOD2 signaling (setting [2]), 0.8 nM.

In the case of `Cc1c(Oc2ccnc3ccc(C4(S(C)(=O)=O)CC4)cc23)cc(F)c(CC(=O)Nc2cnn(C(C)(C)C)c2)c1F` [Compound 607, N-(1-(tert-butyl)-1H-pyrazol-4-yl)-2-(2,6-difluoro-3-methyl-4-((6-(1-(methylsulfonyl)cyclopropyl)quinolin-4-yl)oxy)phenyl)acetamide], the values for the IC50 at RIPK2 enzyme and in the assay on human NOD2 signaling (setting [2]) were 3.5 nM and 6.1 nM, respectively.

In the case of `[2H]C([2H])([2H])C(n1cc(NC(=O)Cc2cc(C)c(Oc3ccnc4cc(F)c(C(N)=O)cc34)c(F)c2)cn1)(C([2H])([2H])[2H])C([2H])([2H])[2H]` [Compound 608, 7-fluoro-4-(2-fluoro-6-methyl-4-(2-((1-(2-(methyl-d3)propan-2-yl-1,1,1,3,3,3-d6)-1H-pyrazol-4-yl)amino)-2-oxoethyl)phenoxy) quinoline-6-carboxamide], the IC50 on RIPK2 enzyme turned out to be 2.5 nM; with human NOD2 signaling (setting [2]), 1.6 nM.

Take `Cc1c(Oc2ccnc3cc(F)c(C(N)=O)cc23)ccc(CC(=O)Nc2cnn(C(C)(C)C)c2)c1C#N` [Compound 610, 4-(4-(2-((1-(tert-butyl)-1H-pyrazol-4-yl)amino)-2-oxoethyl)-3-cyano-2-methylphenoxy)-7-fluoroquinoline-6-carboxamide]: the IC50 on RIPK2 enzyme was less than 2.5 nM; in the assay on human NOD2 signaling (setting [2]), 2.1 nM.

Consider `CNC(=O)c1cc2c(Oc3ccc(CC(=O)Nc4cnn(C(C)(C)C)c4)c(C#N)c3C)ccnc2cc1F` [Compound 611, 4-(4-(2-((1-(tert-butyl)-1H-pyrazol-4-yl)amino)-2-oxoethyl)-3-cyano-2-methylphenoxy)-7-fluoro-N-methylquinoline-6-carboxamide], for which the IC50 is less than 2.5 nM at RIPK2 enzyme and 0.9 nM in the assay on human NOD2 signaling (setting [2]).

With `Cc1nc(CC(=O)Nc2cnn(C(C)(C)C)c2)ccc1Oc1ccnc2cc(F)c(C(N)=O)cc12` [Compound 612, 4-((6-(2-((1-(tert-butyl)-1H-pyrazol-4-yl)amino)-2-oxoethyl)-2-methylpyridin-3-yl)oxy)-7-fluoroquinoline-6-carboxamide], the half-maximal inhibitory concentration (IC50) on RIPK2 enzyme was less than 2.5 nM; with human NOD2 signaling (setting [2]) it was 3.6 nM.

For `CNC(=O)c1cc2c(Oc3ccc(CC(=O)Nc4cnn(C(C)(C)C)c4)nc3C)ccnc2cc1F` [Compound 613, 4-((6-(2-((1-(tert-butyl)-1H-pyrazol-4-yl)amino)-2-oxoethyl)-2-methylpyridin-3-yl)oxy)-7-fluoro-N-methylquinoline-6-carboxamide], the IC50 at RIPK2 enzyme was less than 2.5 nM; in the assay with human NOD2 signaling (setting [2]), 4.6 nM.

`[2H]C([2H])([2H])NC(=O)c1cc2c(Oc3ccc(CC(=O)Nc4cnn(C(C)(C)C)c4)nc3C)ccnc2cc1F` [Compound 614, 4-((6-(2-((1-(tert-butyl)-1H-pyrazol-4-yl)amino)-2-oxoethyl)-2-methylpyridin-3-yl)oxy)-7-fluoro-N-(methyl-d3)quinoline-6-carboxamide]: the figures for the IC50 on RIPK2 enzyme and in the assay on human NOD2 signaling (setting [2]) were less than 2.5 nM and 3.7 nM, respectively.

For `Cc1cc(CC(=O)Nc2cc(C(C)(C)C)[nH]n2)cc(F)c1Oc1ccnc2cc(F)c(C(N)=O)cc12` [Compound 617, 4-(4-(2-((5-(tert-butyl)-1H-pyrazol-3-yl)amino)-2-oxoethyl)-2-fluoro-6-methylphenoxy)-7-fluoroquinoline-6-carboxamide], the results for the IC50 at RIPK2 enzyme and in the assay on human NOD2 signaling (setting [2]) were less than 2.5 nM and 1.1 nM, respectively.

Turning to `Cc1cc(CC(=O)Nc2cc(C(C)(C)C)[nH]n2)cc(C)c1Oc1ccnc2cc(F)c(C(N)=O)cc12` [Compound 618, 4-(4-(2-((5-(tert-butyl)-1H-pyrazol-3-yl)amino)-2-oxoethyl)-2,6-dimethylphenoxy)-7-fluoroquinoline-6-carboxamide], the IC50 was less than 2.5 nM at RIPK2 enzyme and 0.3 nM in the assay with human NOD2 signaling (setting [2]).

For `CC(C)(C)c1cc(NC(=O)Cc2ccc(Oc3ccnc4cc(F)c(C(N)=O)cc34)c(C(F)F)c2)n[nH]1` [Compound 619, 4-(4-(2-((5-(tert-butyl)-1H-pyrazol-3-yl)amino)-2-oxoethyl)-2-(difluoromethyl)phenoxy)-7-fluoroquinoline-6-carboxamide], the half-inhibitory concentration (IC50) was less than 2.5 nM on RIPK2 enzyme and 1.4 nM in the assay with human NOD2 signaling (setting [2]).

In the case of `[2H]C([2H])([2H])C(n1cc(NC(=O)Cc2cc(C)c(Oc3ccnc4ccc(C(=O)NC)cc34)cc2F)cn1)(C([2H])([2H])[2H])C([2H])([2H])[2H]` [Compound 622, 4-(5-fluoro-2-methyl-4-(2-((1-(2-(methyl-d3)propan-2-yl-1,1,1,3,3,3-d6)-1H-pyrazol-4-yl)amino)-2-oxoethyl)phenoxy)-N-methylquinoline-6-carboxamide], the 50% inhibitory concentration (IC50) on RIPK2 enzyme is less than 2.5 nM; with human NOD2 signaling (setting [2]), 2 nM.

With `CC(C)(C)S(=O)(=O)c1cc2c(Nc3ccc4scnc4c3)ncnc2cc1OCCOP(=O)(O)O` [GSK 2983559, reference compound], in the assay with human NOD2 signaling (HEK-Blue hNOD2, 24 h, HEK-Blue-hNOD2 cells, L18-MDP 0.5 ng/mL, 24 h, read-out: hNOD2 inhibition IC50), the IC50 is greater than 10000 nM. Further, the “inhibition of the RIPK2 and XIAP protein-protein interaction” value in assay [1] is “no inhibition”.
